Reference: patent publication US11260083B2, “Compositions and methods for treating and preventing graft versus host disease” (The Regents of the University of Michigan, priority 2016, dated 2022)

Columns and labels:
HAT = HAT enzymatic activity in donor T cells from recipient spleen; assay type: in vivo, mouse; settings: butyrate vs vehicle treated allogeneic animals
Experimental: (§1) To further determine whether the salutary effects of local treatment with butyrate on GI GVHD were dependent on donor Treg cells, a BMT was performed utilizing the same HC mismatched BMT model in which C57BL/6J (H-2b) cells are transferred to Balb/c (H-2d) mice. T cell-depleted (TCD) bone marrow was transplanted and purified CD4+CD25− T cells from donors. Vehicle or butyrate was administered to the recipients daily for 1 week, then every other day thereafter as above. […]. J. Exp. Med. 204, 57-63 (2007); Lahl, K. & Sparwasser, T. In vivo depletion of FoxP3+ Tregs using the DEREG mouse model. […]. The Treg depleted T cells were then used as donor cells in the major MHC mismatch model used above. […] To further examine whether the local administration of butyrate impacted donor T cells directly, the HDAC and HAT enzymatic activity was determined in donor T cells harvested from the recipient animals. Both the HDAC activity or HAT activity in the donor T cells harvested from the recipient spleen were similar between butyrate and vehicle treated allogeneic animals.

CD326+ IECs = experiment: IEC viability assay with or without irradiation (6 Gy); assay type: cell-based, mouse; settings: ex vivo
Experimental: Primary intestinal epithelial cells (IECs) were obtained from C57BL/6J mice as described previously (Lefrangois, L. & Lycke, N. Isolation of Mouse Small Intestinal Intraepithelial Lymphocytes, Peyer's Patch, and Lamina Propria Cells. (John Wiley & Sons, Inc., 2001)). Briefly, luminal contents of intestine were flushed with CMF solution. Intestine was then minced into 0.5 cm pieces, washed with CMF four times, transferred to CMF/FBS/EDTA, and incubated at 37° C. for 60 minutes (shaking tubes every 10 minutes). Supernatant containing IECs was then transferred through […] cell filter followed by incubation on ice for 10 minutes to allow sedimentation. Supernatant was again transferred through a 75 μM cell filter. CD326+ IECs were next purified utilizing either FACS or anti-APC magnetic microbeads (Miltenyi Biotec Ltd., Auburn, Calif.) and an autoMACs (Miltenyi Biotec). […]
The potential mechanisms that contribute to butyrate-induced protection from severe GVHD were explored. […] The ability of butyrate-treated IECs to withstand damage mediated by alloreactive T cells was determined by isolating and culturing primary IECs with butyrate or vehicle control, overnight. […] Because butyrate is a primary energy source for IECs 1-13, it was next determined whether butyrate enhances survival and growth of IECs in vitro. […]

intestinal organoids = experiment: Intestinal organoid culture with butyrate; assay type: cell-based, mouse
Experimental: The potential mechanisms that contribute to butyrate-induced protection from severe GVHD were explored. Because (a) butyrate is decreased in IECs, (b) administration of butyrate mitigated GI GVHD independent of Treg cells, but (c) improved junction integrity, it was explored whether butyrate had direct effects on protecting IECs from allo-T cell mediated damage and conditioning. IECs were treated ex vivo with vehicle or butyrate for 24 hours irradiation (6 Gy) or no-irradition, followed by 24 hours of additional incubation with butyrate was performed. […] The ability of butyrate-treated IECs to withstand damage mediated by alloreactive T cells was determined by isolating and culturing primary IECs with butyrate or vehicle control, overnight. The pre-treated IECs were next co-cultured with primed allogeneic CD8+ T cells, in the absence of butyrate. […] Because butyrate is a primary energy source for IECs 1-13, it was next determined whether butyrate enhances survival and growth of IECs in vitro. To this end, intestinal organoids were cultured in the presence or absence of butyrate. […] Next, the impact of butyrate on IEC junctional function in the organoid cultures was confirmed by determining the mRNA expression of claudins (FIG. 5E).

[1] = system: allogeneic (C57BL/6J→BALB/c) BMT recipients; experiment: Allo-BMT with Treg-depleted donor T cells (CD4+CD25− or DREG + DT) and butyrate; assay type: in vivo, mouse
Experimental: as §1

[2] = Treg depleted (DREG + DT) donor T cells

SMILES: CCCC(=O)[O-].[Na+] [butyrate, sodium butyrate]
- HAT activity in donor T cells (HAT): similar
- irradiation-induced apoptosis of IECs (CD326+ IECs; irradiation 6 Gy): conferred protection
- toxicity to IECs (CD326+ IECs; no irradiation): not toxic
- organoid size (intestinal organoids; culture in the presence of butyrate): significantly increased
- mRNA expression of claudins (Cldn1, Cldn5, Cldn6, Cldn10, Cldn11, Cldn13, Cldn14, Cldn17, Cldn18) (intestinal organoids; organoids cultured with butyrate): significantly increased
- GVHD ([1]; TCD bone marrow and purified CD4+CD25− donor T cells): Decreased GVHD
- clinical GVHD [1, 2]: Significantly improved clinical GVHD
- survival [1, 2]: improved survival
- weight loss [1, 2]: less weight loss
